Reference: ChEMBL document CHEMBL4229520, “Design and synthesis of C10 modified and ring-truncated canthin-6-one analogues as effective membrane-active antibacterial agents” (Bioorg Med Chem Lett, 2018)
Values after ≈ are worked out from the molar mass of the structure shown. Active and inactive are the calls of the source. The rule behind the calls is not given here.

What was measured:
[1] = Selectivity index, ratio of IC50 for human A549 cells to MIC for Bacillus cereus; assay type: toxicity; details: read-out: Selectivity Index
[2] = Cytotoxicity against human HeLa cells assessed as cell viability at 4 ug/ml after 48 hrs by MTT assay relative to control; assay type: cell-based; details: read-out: Activity
Staphylococcus aureus [3] = test: Potency index, ratio of cefotaxime sodium MIC to test compound MIC for methicillin-resistant Staphylococcus aureus; assay type: functional
Staphylococcus aureus [4] = test: Induction of membrane damage in Staphylococcus aureus at 1 ug/ml after 1 hr by Hoechst/propidium iodide staining-based fluorescence microscopic method; assay type: functional, organism-based
HeLa = test: Cytotoxicity against human HeLa cells assessed as decrease in cell viability after 48 hrs by MTT assay; assay type: cell-based
Staphylococcus aureus [5] = test: Antibacterial activity against methicillin-resistant Staphylococcus aureus after 12 to 14 hrs; assay type: functional
SGC-7901 = test: Cytotoxicity against human SGC7901 cells assessed as decrease in cell viability after 48 hrs by MTT assay; assay type: cell-based; details: SGC-7901, 48 h
L02 = test: Cytotoxicity against human L02 cells assessed as decrease in cell viability after 48 hrs by MTT assay; assay type: cell-based; details: L02, 48 h
[6] = Cytotoxicity against human SGC7901 cells assessed as cell viability at 4 ug/ml after 48 hrs by MTT assay relative to control; assay type: cell-based, SGC-7901; details: read-out: Activity
Staphylococcus aureus [7] = test: Potency index, ratio of fosfomycin sodium MIC to test compound MIC for methicillin-resistant Staphylococcus aureus; assay type: functional
[8] = Selectivity index, ratio of IC50 for human SGC7901 cells to MIC for Bacillus cereus; assay type: toxicity; details: read-out: Selectivity Index
Radish = test: Allelopathic activity against Raphanus sativus assessed as germination rate at 4 ug/ml after 48 hrs (reference value: 92 +/- 0.47%); assay type: organism-based; details: in vivo
Bacillus cereus = test: Antibacterial activity against Bacillus cereus after 12 to 14 hrs; assay type: functional
[9] = Selectivity index, ratio of IC50 for human L02 cells to MIC for Bacillus cereus; assay type: toxicity; details: read-out: Selectivity Index
[10] = Cytotoxicity against human L02 cells assessed as cell viability at 4 ug/ml after 48 hrs by MTT assay relative to control; assay type: cell-based; details: read-out: Activity
[11] = Selectivity index, ratio of IC50 for human L02 cells to MIC for Ralstonia solanacearum; assay type: toxicity; details: read-out: Selectivity Index
Staphylococcus aureus [12] = test: Induction of morphological changes in Staphylococcus aureus assessed as cell shrinkage at 1 ug/ml after 1 hr by SEM analysis; assay type: functional, organism-based
[13] = Selectivity index, ratio of IC50 for human HeLa cells to MIC for Bacillus cereus; assay type: toxicity; details: read-out: Selectivity Index
A549 = test: Cytotoxicity against human A549 cells assessed as decrease in cell viability after 48 hrs by MTT assay; assay type: cell-based; details: A549, 48 h
Ralstonia solanacearum [14] = test: Protection against Ralstonia solanacearum-induced infection in eggplant leaf at 4 ug/ml after 3 days relative to control; assay type: functional
[15] = Selectivity index, ratio of IC50 for human HeLa cells to MIC for Ralstonia solanacearum; assay type: toxicity; details: read-out: Selectivity Index
[16] = Selectivity index, ratio of IC50 for human SGC7901 cells to MIC for Ralstonia solanacearum; assay type: toxicity; details: read-out: Selectivity Index
Staphylococcus aureus [17] = test: Induction of membrane permeabilization in Staphylococcus aureus at MIC by beta-galactosidase leakage assay; assay type: functional, organism-based
Bacillus subtilis = test: Antibacterial activity against Bacillus subtilis after 12 to 14 hrs; assay type: functional
[18] = Cytotoxicity against human A549 cells assessed as cell viability at 4 ug/ml after 48 hrs by MTT assay relative to control; assay type: cell-based; details: read-out: Activity
Ralstonia solanacearum [19] = test: Antibacterial activity against Ralstonia solanacearum after 12 to 14 hrs; assay type: functional
Staphylococcus aureus [20] = test: Antibacterial activity against Staphylococcus aureus after 12 to 14 hrs; assay type: functional
[21] = Selectivity index, ratio of IC50 for human A549 cells to MIC for Ralstonia solanacearum; assay type: toxicity; details: read-out: Selectivity Index
Triticum aestivum = test: Allelopathic activity against Triticum aestivum assessed as germination rate at 4 ug/ml after 48 hrs (reference value: 91 +/- 0.42%); assay type: organism-based; details: in vivo
Ralstonia solanacearum [22] = test: Potency index, ratio of propineb MIC to test compound MIC for Ralstonia solanacearum; assay type: functional

O=C1C=CC(=O)n2c1cc1ccccc12
selectivity ratio [1]: 4.1
viability at 48 h, 4 ug/ml [2]: 91%
Ratio (Staphylococcus aureus [3]): 8
Activity (Staphylococcus aureus [4]): Active
IC50 (HeLa): 82.4 µM
MIC (Staphylococcus aureus [5]): 2 µg/mL (≈ 10.1 µM)
IC50 (SGC-7901): 88.6 µM
IC50 (L02): 79.5 µM
viability at 48 h, 4 ug/ml [6]: 96%
Ratio (Staphylococcus aureus [7]): 4
selectivity ratio [8]: 4.9
Activity (Radish): 100%
MIC (Bacillus cereus): 4 µg/mL (≈ 20.3 µM)
selectivity ratio [9]: 4.9
viability at 48 h, 4 ug/ml [10]: 89%
selectivity ratio [11]: 4
Activity (Staphylococcus aureus [12]): Active
selectivity ratio [13]: 4.1
IC50 (A549): 97.1 µM
Efficacy (Ralstonia solanacearum [14]): 68%
selectivity ratio [15]: 4.4
selectivity ratio [16]: 4
Activity (Staphylococcus aureus [17]): Active
MIC (Bacillus subtilis): 2 µg/mL (≈ 10.1 µM)
viability at 48 h, 4 ug/ml [18]: 103%
MIC (Ralstonia solanacearum [19]): 4 µg/mL (≈ 20.3 µM)
MIC (Staphylococcus aureus [20]): 2 µg/mL (≈ 10.1 µM)
selectivity ratio [21]: 4.4
Activity (Triticum aestivum): 97%

O=C1CCC(=O)n2c1cc1ccccc12
MIC (Staphylococcus aureus [5]): 4 µg/mL (≈ 20.1 µM)
MIC (Bacillus cereus): 16 µg/mL (≈ 80.3 µM)
MIC (Bacillus subtilis): 4 µg/mL (≈ 20.1 µM)
MIC (Ralstonia solanacearum [19]): 8 µg/mL (≈ 40.2 µM)
MIC (Staphylococcus aureus [20]): 8 µg/mL (≈ 40.2 µM)

COc1ccc2[nH]c3c(C(OC)OC)nccc3c2c1
MIC (Bacillus cereus): > 64 µg/mL
MIC (Bacillus subtilis): > 64 µg/mL
MIC (Ralstonia solanacearum [19]): > 64 µg/mL
MIC (Staphylococcus aureus [20]): > 64 µg/mL

CCc1cc2nccc3c4cc(OC)ccc4n(c1=O)c23
MIC (Bacillus cereus): > 64 µg/mL
MIC (Bacillus subtilis): > 64 µg/mL
MIC (Ralstonia solanacearum [19]): > 64 µg/mL
MIC (Staphylococcus aureus [20]): > 64 µg/mL

COc1ccc2c(c1)c1ccnc3ccc(=O)n2c31
MIC (Staphylococcus aureus [5]): 64 µg/mL (≈ 256 µM)
MIC (Bacillus cereus): 4 µg/mL (≈ 16 µM)
MIC (Bacillus subtilis): 8 µg/mL (≈ 32 µM)
MIC (Ralstonia solanacearum [19]): 16 µg/mL (≈ 63.9 µM)
MIC (Staphylococcus aureus [20]): > 64 µg/mL

CO/N=C(\C(=O)N[C@@H]1C(=O)N2C(C(=O)[O-])=C(COC(C)=O)CS[C@H]12)c1csc(N)n1.[Na+] [CEFOTAXIME SODIUM]
MIC (Staphylococcus aureus [5]): 16 µg/mL
MIC (Bacillus cereus): 16 µg/mL
MIC (Bacillus subtilis): 2 µg/mL
MIC (Ralstonia solanacearum [19]): 2 µg/mL
MIC (Staphylococcus aureus [20]): 1 µg/mL

COc1ccc2[nH]c3cnccc3c2c1
MIC (Staphylococcus aureus [5]): > 64 µg/mL
MIC (Bacillus cereus): > 64 µg/mL
MIC (Bacillus subtilis): > 64 µg/mL
MIC (Ralstonia solanacearum [19]): > 64 µg/mL
MIC (Staphylococcus aureus [20]): > 64 µg/mL

O=c1ccc2nccc3c4cc(O)ccc4n1c23
MIC (Bacillus cereus): 16 µg/mL (≈ 67.7 µM)
MIC (Bacillus subtilis): > 64 µg/mL
MIC (Ralstonia solanacearum [19]): > 64 µg/mL
MIC (Staphylococcus aureus [20]): > 64 µg/mL

COc1ccc2c(c1)c1c3n2C(=O)CCC3NCC1 (centres undefined)
MIC (Bacillus cereus): > 64 µg/mL
MIC (Bacillus subtilis): > 64 µg/mL
MIC (Ralstonia solanacearum [19]): > 64 µg/mL
MIC (Staphylococcus aureus [20]): > 64 µg/mL

O=C(O)CNCP(=O)(O)O [GLYPHOSATE]
Activity (Radish): 78%
Activity (Triticum aestivum): 75%

O=C1CCC(=O)n2ccc3cccc1c32
MIC (Bacillus cereus): > 64 µg/mL
MIC (Bacillus subtilis): > 64 µg/mL
MIC (Ralstonia solanacearum [19]): > 64 µg/mL
MIC (Staphylococcus aureus [20]): > 64 µg/mL

COc1ccc2c(c1)c1ccnc3c1n2CN(Cc1ccccc1)C3
MIC (Bacillus cereus): 64 µg/mL (≈ 194 µM)
MIC (Bacillus subtilis): 64 µg/mL (≈ 194 µM)
MIC (Ralstonia solanacearum [19]): > 64 µg/mL
MIC (Staphylococcus aureus [20]): > 64 µg/mL

O=C1CCC(O)c2cc3ccccc3n21 (centres undefined)
MIC (Staphylococcus aureus [5]): 32 µg/mL (≈ 159 µM)
MIC (Bacillus cereus): 16 µg/mL (≈ 79.5 µM)
MIC (Bacillus subtilis): 16 µg/mL (≈ 79.5 µM)
MIC (Ralstonia solanacearum [19]): 32 µg/mL (≈ 159 µM)
MIC (Staphylococcus aureus [20]): 8 µg/mL (≈ 39.8 µM)

COc1ccc2c(c1)c1ccnc3c1n2CCC3
MIC (Staphylococcus aureus [5]): 32 µg/mL (≈ 134 µM)
MIC (Bacillus cereus): 32 µg/mL (≈ 134 µM)
MIC (Bacillus subtilis): > 64 µg/mL
Ratio (Ralstonia solanacearum [22]): 2
MIC (Ralstonia solanacearum [19]): 4 µg/mL (≈ 16.8 µM)
MIC (Staphylococcus aureus [20]): > 64 µg/mL

O=C1CCCC2Cc3ccccc3N12 (centres undefined)
MIC (Bacillus cereus): > 64 µg/mL
MIC (Bacillus subtilis): > 64 µg/mL
MIC (Ralstonia solanacearum [19]): > 64 µg/mL
MIC (Staphylococcus aureus [20]): > 64 µg/mL

C[C@@H]1O[C@@H]1P(=O)([O-])[O-].[Na+].[Na+] [PHOSPHOMYCIN DISODIUM]
MIC (Staphylococcus aureus [5]): 8 µg/mL
MIC (Bacillus cereus): 4 µg/mL
MIC (Bacillus subtilis): 2 µg/mL
MIC (Ralstonia solanacearum [19]): 8 µg/mL
MIC (Staphylococcus aureus [20]): 16 µg/mL

O=C1CCCc2cc3ccccc3n21
MIC (Bacillus cereus): > 64 µg/mL
MIC (Bacillus subtilis): > 64 µg/mL
MIC (Ralstonia solanacearum [19]): > 64 µg/mL
MIC (Staphylococcus aureus [20]): > 64 µg/mL

COc1ccc2c(c1)c1cc[n+]([O-])c3ccc(=O)n2c13
MIC (Bacillus cereus): > 64 µg/mL
MIC (Bacillus subtilis): > 64 µg/mL
MIC (Ralstonia solanacearum [19]): > 64 µg/mL
MIC (Staphylococcus aureus [20]): > 64 µg/mL

O=C1CCC2(SCCS2)c2cc3ccccc3n21
MIC (Staphylococcus aureus [5]): > 64 µg/mL
MIC (Bacillus cereus): > 64 µg/mL
MIC (Bacillus subtilis): > 64 µg/mL
MIC (Ralstonia solanacearum [19]): > 64 µg/mL
MIC (Staphylococcus aureus [20]): 32 µg/mL (≈ 116 µM)

COc1ccc2c(c1)c1c3n2C(=O)CCC3N(Cc2ccccc2)CC1 (centres undefined)
MIC (Staphylococcus aureus [5]): 64 µg/mL (≈ 185 µM)
MIC (Bacillus cereus): > 64 µg/mL
MIC (Bacillus subtilis): > 64 µg/mL
MIC (Ralstonia solanacearum [19]): > 64 µg/mL
MIC (Staphylococcus aureus [20]): 64 µg/mL (≈ 185 µM)

c1ccc2c(c1)[nH]c1cnccc12 [NORHARMANE]
MIC (Staphylococcus aureus [5]): > 64 µg/mL
MIC (Bacillus cereus): > 64 µg/mL
MIC (Bacillus subtilis): > 64 µg/mL
MIC (Ralstonia solanacearum [19]): > 64 µg/mL
MIC (Staphylococcus aureus [20]): > 64 µg/mL

COc1ccc2[nH]c3c(C=O)nccc3c2c1
MIC (Bacillus cereus): 32 µg/mL (≈ 141 µM)
MIC (Bacillus subtilis): > 64 µg/mL
MIC (Ralstonia solanacearum [19]): > 64 µg/mL
MIC (Staphylococcus aureus [20]): > 64 µg/mL

C#CCOc1ccc2c(c1)c1ccnc3ccc(=O)n2c31
MIC (Staphylococcus aureus [5]): > 64 µg/mL
MIC (Bacillus cereus): 8 µg/mL (≈ 29.2 µM)
MIC (Bacillus subtilis): > 64 µg/mL
MIC (Ralstonia solanacearum [19]): 8 µg/mL (≈ 29.2 µM)
MIC (Staphylococcus aureus [20]): 64 µg/mL (≈ 233 µM)

O=c1ccc2nccc3c4cc(OCc5cn(Cc6ccccc6)nn5)ccc4n1c23
MIC (Bacillus cereus): > 64 µg/mL
MIC (Bacillus subtilis): > 64 µg/mL
